One series can be described thus: clinical. Conditions: both, human, in vivo.

Where two headings read alike, the source gives them in different places.

In general, AUC(0-t) refers to exposure summed from dosing to a finite time, without extrapolation to infinity. A lower AUC(0-t) goes with low exposure. What is called Cmax is the peak of the concentration-time curve. Take `CC(C)c1nc(N(C)S(C)(=O)=O)nc(-c2ccc(F)cc2)c1/C=C/[C@@H](O)C[C@@H](O)CC(=O)O` [Rosuvastatin acid, rosuvastatin]: under “both, human, in vivo”, the “AUC0–24, goldenseal exposure / baseline ratio” value is 1.01 [0.91–1.13]; the “ClR, goldenseal exposure / baseline ratio” value was 0.96 [0.89–1.03]; the “Cmax, goldenseal exposure / baseline ratio” value is 1.08 [0.94–1.22]. In “clinical”, this molecule showed an area under the curve AUC(0-t) of 0.06 µM·h, a CL renal of 247 mL/min and a Cmax of 7.9 nM. In addition, in the series “clinical” (po), the AUC(0-t) was 0.059 µM·h, the CL renal is 257 mL/min and the peak level (Cmax) was 7.4 nM.

The term AUC(0-inf) denotes the area under the concentration-time curve extrapolated to infinity. Low values mean low exposure, high ones high exposure. In “clinical”, `CN(C)C(=N)N=C(N)N` [Metformin, metformin] showed an AUC(0-inf) of 3.8 µM·h, an AUC(0-t) of 3.6 µM·h, a CL renal of 700 mL/min and a Cmax of 540 nM. In the series “clinical” (po), this molecule had an AUC(0-inf) of 5 µM·h, an AUC(0-t) of 4.7 µM·h, a CL renal of 683 mL/min and a maximum concentration (Cmax) of 750 nM.

In the case of `CC(C)c1nc(N(C)S(C)(=O)=O)nc(-c2ccc(F)cc2)c1/C=C/[C@@H]1C[C@@H](O)CC(=O)O1` [Rosuvastatin lactone, rosuvastatin lactone], under “human, in vivo”, the “AUC0–72” value was 27 [23–32] nM*h and the peak level (Cmax) was 1.5 nM. Moreover, where the note is “human, in vivo, po”, the “AUC0–72” value is 28 [24–32] nM*h and the peak level (Cmax) was 1.5 nM.

One may read the half-life as the time in which the quantity being followed falls by half. A high value points to slow loss. With `Cc1ncc2n1-c1ccc(Cl)cc1C(c1ccccc1F)=NC2` [Midazolam, midazolam], where the note is “in the presence of goldenseal”, the “increase of geometric mean Cmax” value worked out at 31% and the “increase of systemic exposure” value was ~ 40%. Besides, in the series “clinical”, the AUC(0-inf) was 0.096 µM·h, the AUC(0-t) is 0.086 µM·h and the CL renal is 1.17 mL/min. In the series “clinical” (po), this molecule gave an AUC(0-inf) of 0.067 µM·h, an AUC(0-t) of 0.062 µM·h, a CL renal of 0.833 mL/min and a Cmax of 26 nM. In the series “clinical” (po), this molecule had a half-life of 3.9 h.
